Measurements published in ChEMBL document CHEMBL5729558, “Morpholinylpyridone compounds” (2023).

Biological target: Phosphatidylinositol 3-kinase catalytic subunit type 3 (Homo sapiens, UniProt Q8NEB9)
Assay: Vps34 Biochemical Assay: Dilution series of compounds of the invention were prepared in DMSO at 100 times the final assay concentration (n1=n0/3 in 10 points). The compounds were further diluted to 4 times the assay concentration in assay buffer (Life technologies buffer Q, PV5125, diluted 5 times supplemented with 2 mM DTT and 2 mM MnCl2). 2.5 μl of the diluted compounds were added to a 384 well assay plate followed by 2.5 μl of 16.5 nM Vps34 enzyme (Life technologies, PV5126). Enzyme and compounds were pre-incubated at rt for 15 min. Then 5 μl of substrate mix containing 20 μM ATP (Life technologies, PV3227) and 200 μM PI:PS substrate (Life technologies, PV5122) in assay buffer was added to the wells containing compound and enzyme. Mixing was performed by pipetting several times. The reaction was incubated at room temperature for 1 h. Then 5 μl stop-detection mix, prepared as described in the Adapta kinase assay kit instructions (Life technologies, PV5099) containing Adapta Eu-anti-ADP antibody (2.3 nM), Alexa Fluor 647 ADP tracer (9 nM) and EDTA (30 mM) in TR-FRET buffer, was added to quench the reaction. Mixing was performed by pipetting several times. The assay plate was then incubated at room temperature for 30 min and read with Artemis micro plate reader. Percent inhibition of the compounds as compared to DMSO treated control samples was calculated. By the use of Dotmatics software compound concentration versus percent inhibition was fitted to generate IC50 values.

Chain of Phosphatidylinositol 3-kinase catalytic subunit type 3 (Q8NEB9 whole entry): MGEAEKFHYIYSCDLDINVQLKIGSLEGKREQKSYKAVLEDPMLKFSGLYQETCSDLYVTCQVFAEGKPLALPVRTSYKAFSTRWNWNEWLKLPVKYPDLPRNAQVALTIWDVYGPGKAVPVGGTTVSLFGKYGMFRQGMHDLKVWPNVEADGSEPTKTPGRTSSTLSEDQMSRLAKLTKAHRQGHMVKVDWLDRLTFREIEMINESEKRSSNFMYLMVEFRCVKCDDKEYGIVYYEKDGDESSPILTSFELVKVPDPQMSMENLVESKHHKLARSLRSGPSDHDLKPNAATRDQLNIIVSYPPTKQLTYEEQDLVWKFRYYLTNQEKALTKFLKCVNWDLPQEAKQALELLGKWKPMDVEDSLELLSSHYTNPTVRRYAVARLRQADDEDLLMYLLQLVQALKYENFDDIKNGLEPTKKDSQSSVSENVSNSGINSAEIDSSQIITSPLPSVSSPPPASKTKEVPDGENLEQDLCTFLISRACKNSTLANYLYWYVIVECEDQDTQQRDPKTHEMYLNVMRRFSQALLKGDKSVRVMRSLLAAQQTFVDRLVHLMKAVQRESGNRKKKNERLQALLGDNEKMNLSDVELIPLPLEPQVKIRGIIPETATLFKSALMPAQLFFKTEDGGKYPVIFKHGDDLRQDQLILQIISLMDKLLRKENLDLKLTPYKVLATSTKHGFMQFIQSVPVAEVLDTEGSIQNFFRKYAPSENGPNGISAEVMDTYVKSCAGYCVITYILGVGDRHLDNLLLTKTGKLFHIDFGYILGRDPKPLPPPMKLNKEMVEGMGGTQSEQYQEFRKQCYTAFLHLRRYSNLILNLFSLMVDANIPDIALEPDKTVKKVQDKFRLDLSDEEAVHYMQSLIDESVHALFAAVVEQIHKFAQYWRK

| Structure (SMILES) | IC50 [nM] |
| --- | --- |
| C[C@@H]1COCCN1c1cc(N2CCN(S(=O)(=O)N3CCOCC3)CC2C(F)(F)F)[nH]c(=O)c1 (stereo partly drawn) | < 5 |
| C[C@@H]1COCCN1c1cc(N2CCN(S(=O)(=O)C3CC3)CC2C(F)(F)F)[nH]c(=O)c1 (stereo partly drawn) | < 5 |
| C[C@@H]1COCCN1c1cc(N2CCN(S(=O)(=O)c3ccnn3C)CC2C(F)(F)F)[nH]c(=O)c1 (stereo partly drawn) | < 5 |
